Source: US9815862B2, “Polymorphs of LNnT” (Glycom A/S, priority 2012, dated 2017)

Tests used:
[1] = Redissolution of the precipitate formed from aqueous LNnT solution; format: physicochemical; details: white precipitate from aqueous solution stored at 2-8° C. or room temperature
Description: Amorphous spray-dried LNnT (6.0087 g, water content: 2.67%, purity: 99.2% by HPAEC) was dissolved in HPLC water (10.66 ml). Dissolution was reached by shaking. Two samples of 1 ml solution were stored at 2-8° C. (sample 1) and room temperature (sample 2), respectively, for 4 weeks. […] The precipitation was collected by filtration and dried at atmospheric pressure.

[2] = Storage of crystalline polymorph in an open vessel, checked by XRPD; format: physicochemical; details: stored in an open vessel at ambient temperature and humidity for a week
Description: XRPD investigation of the collected crystals was conducted with a Philips PW 1830/PW 1050 instrument in transmission geometry, using CuKα radiation made monochromatic by means of a graphite monochromator. D-spacings were calculated from the 2Θ values, based on a wavelength of 1.54186 Å. As a general rule the 2Θ values have an error rate of […].

## CC(=O)N[C@H]1[C@H](O[C@H]2[C@@H](O)[C@@H](CO)O[C@@H](O[C@H]3[C@H](O)[C@@H](O)C(O)O[C@@H]3CO)[C@@H]2O)O[C@H](CO)[C@@H](O[C@@H]2O[C@H](CO)[C@H](O)[C@H](O)[C@H]2O)[C@@H]1O (mixture of isomers) [LNnT polymorph IV, lacto-N-neotetraose]
[1]
  redissolution of the precipitated crystals: can be redissolved only when ultrasonicated for 3 hours at 50 °C

## CC(=O)N[C@H]1[C@H](O[C@H]2[C@@H](O)[C@@H](CO)O[C@@H](O[C@H]3[C@H](O)[C@@H](O)C(O)O[C@@H]3CO)[C@@H]2O)O[C@H](CO)[C@@H](O[C@@H]2O[C@H](CO)[C@H](O)[C@H](O)[C@H]2O)[C@@H]1O (mixture of isomers) [LNnT polymorph V, lacto-N-neotetraose]
[2]
  change in XRPD pattern on storage (solid-state stability): no substantial change in its XRPD pattern can be observed
